Assay results published in the supplement of paper PMC10627819.

Columns and labels:
[1] = system: B. subtilis 168; experiment: Bliss interaction score (quartile over a dose matrix) (fitness difference); higher = more antagonism (negative = synergy)
How it was run: (§1)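 Fitness was defined as normalised growth: OD595 at the start of stationary phase divided by the plate's robust no-drug mean and capped at 1. Single-drug fitness was inferred from combination measurements. The Bliss score is observed fitness minus the product of the single-drug values, summarised by quartiles across technical, biological and donor/recipient replicates.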

[2] = system: S. aureus DSM 20231; experiment: as above
How it was run: as §1

[3] = system: S. pneumoniae D39V; experiment: as above
How it was run: as §1

[4] = system: S. aureus Newman; experiment: as above
How it was run: as §1

[5] = system: S. aureus DSM 20231; experiment: fitness (endpoint OD595 vs no drug) (fraction); higher = more growth
How it was run: (§2)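 Fitness is computed from the optical density at which cultures reach stationary phase, divided by the robust mean of no-drug control wells. Any value above 1 is set to 1. Cultures started at OD595 0.01 in 384-well plates with TSB, LB Lennox or CY at 37 °C, and OD595 was read every 30 min for 14 h against a first-reading background.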

[6] = system: S. pneumoniae D39V; experiment: as above
How it was run: as §2

[7] = system: S. aureus Newman; experiment: as above
How it was run: as §2
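For Bliss interaction score (quartile over a dose matrix) in this document: first quartile when negative (synergy) and third quartile when positive (antagonism).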
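For fitness (endpoint OD595 vs no drug) in this document: OD595 on entry to stationary phase over no-drug wells; at most 1.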

Cn1c2cccc(=O)c-2nc2ccccc21 [Pyocyanin] + Cn1nnc(-c2ccc(-c3ccc(N4C[C@H](CO)OC4=O)cc3F)cn2)n1 [Tedizolid]
Settings	Bliss interaction score
[1]	0.0439
[2]	0.0928
[3]	-0.0686
[4]	-0.065

fitness
Settings	partner 0.03125 µg/mL	partner 0.0625 µg/mL	partner 0.125 µg/mL	partner 0.25 µg/mL
[5], first compound 1.25 µg/mL	–	0.813	0.739	0.218
[5], first compound 2.5 µg/mL	–	0.8	0.701	0.242
[5], first compound 5 µg/mL	–	0.635	0.565	0.169
[6], first compound 0.325 µg/mL	0.976	0.978	0.798	–
[6], first compound 0.65 µg/mL	0.97	0.952	0.844	–
[6], first compound 1.3 µg/mL	0.753	0.731	0.652	–
[7], first compound 1.25 µg/mL	–	0.853	0.789	–
[7], first compound 2.5 µg/mL	–	0.764	0.651	–
[7], first compound 5 µg/mL	–	–	0.248	0.161

fitness, [6], one replicate
Settings	first compound 0.325 µg/mL	first compound 0.65 µg/mL
partner 0.25 µg/mL	0.736	0.821
partner 0.5 µg/mL	0.344	0.545

CN(N=O)C(=O)N[C@@H](C=O)[C@@H](O)[C@H](O)[C@H](O)CO [Streptozotocin] + CCCCCCCCCC(=O)N[C@@H]1[C@H]([C@@H]([C@H](O[C@H]1OC2=C3C=C4C=C2OC5=C(C=C(C=C5)[C@H]([C@H]6C(=O)N[C@@H](C7=C(C(=CC(=C7)O)OC8[C@H]([C@H]([C@@H]([C@H](O8)CO)O)O)O)C9=C(C=CC(=C9)[C@H](C(=O)N6)NC(=O)[C@@H]4NC(=O)[C@@H]1C2=CC(=CC(=C2)OC2=C(C=CC(=C2)[C@H](C(=O)N[C@H](CC2=CC(=C(O3)C=C2)Cl)C(=O)N1)N)O)O)O)C(=O)O)O[C@H]1[C@@H]([C@H]([C@@H]([C@H](O1)CO)O)O)NC(=O)C)Cl)CO)O)O [Teicoplanin]
main component drawn
Settings	Bliss interaction score
[1]	0.154
[2]	0.097
[3]	-0.0829
[4]	-0.166

fitness, main component drawn
Settings	first compound 0.15 µg/mL	first compound 0.3 µg/mL	first compound 0.6 µg/mL
[5], partner 0.1562 µg/mL	0.801	0.799	0.66
[5], partner 0.3125 µg/mL	0.935	0.91	0.713
[5], partner 0.625 µg/mL	≥ 1	0.937	0.787
[7], partner 0.1562 µg/mL	0.874	0.724	0.493
[7], partner 0.3125 µg/mL	0.762	0.656	0.368
[7], partner 0.625 µg/mL	0.632	0.534	0.177

fitness, [7], one replicate, main component drawn
Settings	first compound 0.15 µg/mL	first compound 0.3 µg/mL	first compound 0.6 µg/mL
partner 0.62 µg/mL	0.661	0.47	0.181
partner 1.24 µg/mL	0.578	0.259	0.0236
partner 2.48 µg/mL	0.363	0.0725	0.055

CN(N=O)C(=O)N[C@@H](C=O)[C@@H](O)[C@H](O)[C@H](O)CO [Streptozotocin] + CN[C@H](CC(C)C)C(=O)N[C@H]1C(=O)N[C@@H](CC(N)=O)C(=O)N[C@H]2C(=O)N[C@H]3C(=O)N[C@H](C(=O)N[C@H](C(=O)O)c4cc(O)cc(O)c4-c4cc3ccc4O)[C@H](O)c3ccc(c(Cl)c3)Oc3cc2cc(c3O[C@@H]2O[C@H](CO)[C@@H](O)[C@H](O)[C@H]2O[C@H]2C[C@](C)(N)[C@H](O)[C@H](C)O2)Oc2ccc(cc2Cl)[C@H]1O [Vancomycin]
Settings	Bliss interaction score
[1]	-0.0175
[2]	0.0534
[3]	0.0398
[4]	-0.0371

fitness
Settings	first compound 0.15 µg/mL	first compound 0.3 µg/mL	first compound 0.6 µg/mL	first compound 1.2 µg/mL	first compound 2.4 µg/mL	first compound 4.8 µg/mL
[5], partner 0.1875 µg/mL	0.861	0.757	0.716	–	–	–
[5], partner 0.375 µg/mL	0.912	0.845	0.767	–	–	–
[5], partner 0.75 µg/mL	0.946	0.895	0.839	–	–	–
[6], partner 0.03125 µg/mL	–	–	–	0.998	0.99	0.999
[6], partner 0.0625 µg/mL	–	–	–	0.911	0.881	0.932
[6], partner 0.125 µg/mL	–	–	–	0.746	0.757	0.794
[7], partner 0.1875 µg/mL	0.861	0.792	0.585	–	–	–
[7], partner 0.375 µg/mL	0.82	0.758	0.515	–	–	–
[7], partner 0.75 µg/mL	0.885	0.763	0.539	–	–	–

fitness, [6], one replicate
Settings	first compound 1.2 µg/mL	first compound 2.4 µg/mL	first compound 4.8 µg/mL
partner 0.25 µg/mL	0.655	0.639	0.536
partner 0.5 µg/mL	0.327	0.333	0.424

CN(N=O)C(=O)N[C@@H](C=O)[C@@H](O)[C@H](O)[C@H](O)CO [Streptozotocin] + Cn1nnc(-c2ccc(-c3ccc(N4C[C@H](CO)OC4=O)cc3F)cn2)n1 [Tedizolid]
Settings	Bliss interaction score
[1]	-0.0702
[2]	0.0552
[3]	-0.075
[4]	-0.0487

fitness
Settings	partner 0.03125 µg/mL	partner 0.0625 µg/mL	partner 0.125 µg/mL	partner 0.25 µg/mL
[5], first compound 0.15 µg/mL	–	0.799	0.553	0.207
[5], first compound 0.3 µg/mL	–	0.833	0.58	0.195
[5], first compound 0.6 µg/mL	–	0.701	0.5	0.152
[6], first compound 1.2 µg/mL	0.921	0.923	0.809	–
[6], first compound 2.4 µg/mL	0.921	0.908	0.828	–
[6], first compound 4.8 µg/mL	0.932	0.868	0.87	–
[7], first compound 0.15 µg/mL	–	0.822	0.737	0.304
[7], first compound 0.3 µg/mL	–	0.638	–	0.297
[7], first compound 0.6 µg/mL	–	0.471	0.409	0.151

fitness, [6], one replicate
Settings	first compound 1.2 µg/mL	first compound 2.4 µg/mL	first compound 4.8 µg/mL
partner 0.25 µg/mL	0.598	0.653	0.791
partner 0.5 µg/mL	0.426	0.464	0.547
